Data taken from PMC8187479, “Sugar phosphate activation of the stress sensor eIF2B” (Nature Communications, 2021).

Molecular target: T1, eIF2Bα (Homo sapiens, UniProt Q14232)
T1 construct: made in house; host or cells: E. coli BL21(DE3)
T1 sequence (Q14232 1-305): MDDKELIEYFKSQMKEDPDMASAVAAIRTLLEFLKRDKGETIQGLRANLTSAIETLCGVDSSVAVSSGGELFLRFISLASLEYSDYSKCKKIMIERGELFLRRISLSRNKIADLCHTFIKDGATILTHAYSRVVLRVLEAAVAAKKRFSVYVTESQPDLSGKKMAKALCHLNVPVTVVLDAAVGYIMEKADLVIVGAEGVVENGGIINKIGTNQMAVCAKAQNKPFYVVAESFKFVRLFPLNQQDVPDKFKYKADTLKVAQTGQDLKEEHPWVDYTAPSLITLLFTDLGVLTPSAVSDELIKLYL
Test: Isothermal titration calorimetry, wild-type eIF2Bα
Assay type: binding
Experimental: Interactions between recombinant protein and sugar phosphates were conducted with a MicroCal PEAQ-ITC (Malvern Panalytical Inc.). Experiments were performed in 25 mM HEPES, 150 mM NaCl, pH 7.5 at 20 °C. The sugar phosphate concentration in the syringe was 1 mM or 1.5 mM, and ~3.5 μL aliquots were injected into cells containing 300 μL eIF2Bα or eIF2B(βδγε) at a concentration of 20–30 μM. The final titration curves were fitted using MicroCal ITC data analysis software, assuming a single binding site per monomer.

O=C(CO)[C@@H](O)[C@H](O)[C@H](O)COP(=O)(O)O [F6P, fructose-6-phosphate]
Kd (ITC, wild-type eIF2Bα): 9.4 ± 2.3 µM | ITC binding isotherm, heat per mole of injectant (molar ratio 0.037369): -7.609 kcal/mol | ITC binding isotherm, heat per mole of injectant (molar ratio 0.225339): -7.342 kcal/mol | ITC binding isotherm, heat per mole of injectant (molar ratio 0.415168): -6.77 kcal/mol | ITC binding isotherm, heat per mole of injectant (molar ratio 0.606855): -6.002 kcal/mol | ITC binding isotherm, heat per mole of injectant (molar ratio 0.8004): -5.049 kcal/mol | ITC binding isotherm, heat per mole of injectant (molar ratio 0.995804): -4.011 kcal/mol | ITC binding isotherm, heat per mole of injectant (molar ratio 1.19307): -3.038 kcal/mol | ITC binding isotherm, heat per mole of injectant (molar ratio 1.39219): -2.241 kcal/mol | ITC binding isotherm, heat per mole of injectant (molar ratio 1.59317): -1.647 kcal/mol | ITC binding isotherm, heat per mole of injectant (molar ratio 1.796): -1.223 kcal/mol | ITC binding isotherm, heat per mole of injectant (molar ratio 2.0007): -0.9255 kcal/mol | ITC binding isotherm, heat per mole of injectant (molar ratio 2.20725): -0.7147 kcal/mol | ITC binding isotherm, heat per mole of injectant (molar ratio 2.41567): -0.5629 kcal/mol | ITC binding isotherm, heat per mole of injectant (molar ratio 2.62594): -0.4515 kcal/mol | ITC binding isotherm, heat per mole of injectant (molar ratio 2.83807): -0.3681 kcal/mol | ITC binding isotherm, heat per mole of injectant (molar ratio 3.05206): -0.3043 kcal/mol | ITC binding isotherm, heat per mole of injectant (molar ratio 3.2679): -0.2547 kcal/mol | ITC binding isotherm, heat per mole of injectant (molar ratio 3.48561): -0.2155 kcal/mol | ITC binding isotherm, heat per mole of injectant (molar ratio 3.70517): -0.184 kcal/mol
